Molecular target: T1, mouse TRPM3α2 (mTRPM3) ion channel (Mus musculus, UniProt J9SQF3)
T1 construct: expressed in transfected cells; host or cells: flip-in HEK293
Test: TRPM3 ion channel driven Ca2+ uptake, Fluo-4 AM assay, PS-stimulated (mTRPM3)
Format: cell-based
Details: TRPM3 overexpressing flip-in HEK293 cells stimulated with Pregnenolone sulfate (PS) 50 μM, activity ranges A, B, C
How it was run: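 Ca²⁺ influx through mouse TRPM3α2, opened by 50 μM pregnenolone sulfate, was tracked with Fluo-4 AM in stably transfected HEK293 cells read directly after seeding onto pre-dispensed compound.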

T1 sequence (J9SQF3 1-1709 isoform J9SQF3-12): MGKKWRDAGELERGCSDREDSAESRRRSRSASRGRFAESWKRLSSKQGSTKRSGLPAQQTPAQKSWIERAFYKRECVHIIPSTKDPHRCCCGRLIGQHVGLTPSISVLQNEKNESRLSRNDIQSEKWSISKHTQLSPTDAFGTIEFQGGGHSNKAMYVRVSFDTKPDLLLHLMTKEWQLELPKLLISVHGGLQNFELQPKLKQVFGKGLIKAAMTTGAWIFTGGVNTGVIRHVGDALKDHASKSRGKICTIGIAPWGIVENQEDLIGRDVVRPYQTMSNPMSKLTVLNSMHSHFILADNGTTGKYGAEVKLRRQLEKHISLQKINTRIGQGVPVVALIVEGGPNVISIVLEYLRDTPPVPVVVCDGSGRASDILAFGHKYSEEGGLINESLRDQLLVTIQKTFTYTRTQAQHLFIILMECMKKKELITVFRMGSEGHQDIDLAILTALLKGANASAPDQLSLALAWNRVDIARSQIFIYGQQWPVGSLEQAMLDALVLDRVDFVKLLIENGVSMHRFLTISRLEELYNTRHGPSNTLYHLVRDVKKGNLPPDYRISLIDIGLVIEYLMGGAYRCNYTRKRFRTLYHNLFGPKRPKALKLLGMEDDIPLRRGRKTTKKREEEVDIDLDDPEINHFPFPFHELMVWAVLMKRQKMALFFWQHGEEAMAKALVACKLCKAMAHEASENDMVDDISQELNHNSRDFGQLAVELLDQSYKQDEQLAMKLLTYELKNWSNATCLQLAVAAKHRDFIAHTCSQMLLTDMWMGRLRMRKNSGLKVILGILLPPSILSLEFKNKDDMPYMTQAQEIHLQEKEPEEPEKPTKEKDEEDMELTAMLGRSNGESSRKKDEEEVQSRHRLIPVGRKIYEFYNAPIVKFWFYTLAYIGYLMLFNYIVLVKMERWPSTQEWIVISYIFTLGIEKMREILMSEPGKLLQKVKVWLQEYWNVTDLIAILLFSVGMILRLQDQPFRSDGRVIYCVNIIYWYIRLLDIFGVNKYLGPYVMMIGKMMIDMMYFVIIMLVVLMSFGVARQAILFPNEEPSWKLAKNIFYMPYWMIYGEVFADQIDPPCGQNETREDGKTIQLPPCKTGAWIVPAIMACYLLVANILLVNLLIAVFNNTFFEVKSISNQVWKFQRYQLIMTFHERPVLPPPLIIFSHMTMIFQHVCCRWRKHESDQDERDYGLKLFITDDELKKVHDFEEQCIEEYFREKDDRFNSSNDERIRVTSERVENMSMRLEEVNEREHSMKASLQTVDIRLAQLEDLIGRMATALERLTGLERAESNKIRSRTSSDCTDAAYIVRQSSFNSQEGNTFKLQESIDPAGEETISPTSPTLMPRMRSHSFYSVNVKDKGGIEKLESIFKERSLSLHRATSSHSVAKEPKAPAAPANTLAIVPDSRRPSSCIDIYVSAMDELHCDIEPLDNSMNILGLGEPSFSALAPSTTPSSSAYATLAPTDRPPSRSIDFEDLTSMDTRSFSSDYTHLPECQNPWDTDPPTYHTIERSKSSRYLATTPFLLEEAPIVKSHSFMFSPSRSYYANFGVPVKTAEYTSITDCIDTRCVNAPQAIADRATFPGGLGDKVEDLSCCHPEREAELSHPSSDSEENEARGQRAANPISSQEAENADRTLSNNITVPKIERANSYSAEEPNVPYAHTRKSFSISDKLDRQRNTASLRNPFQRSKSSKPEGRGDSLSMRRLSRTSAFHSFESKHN

IC50: > 20 µM
SMILES: Cc1oc2ccc(OCc3ccccc3)cc2c1C(=O)N1CCOCC1 [Cpd 050, (5-(benzyloxy)-2-methylbenzofuran-3-yl)(morpholino)methanone]
